From PubChem BioAssay AID1259375 (The Scripps Research Institute Molecular Screening Center, 2018) come the findings set out here.

The test addresses Microphthalmia-associated transcription factor (Homo sapiens) (UniProt O75030). In words: MITF inhibitors by FRET titration, dose response, biochemical, high throughput (AID 1259375).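 Note: FRET between CFP-tagged and YFP-tagged MITF protein partners.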 To be noted: FRET biochemical assay, MITF inhibition.

Active and inactive are the calls of the source. The rule behind the calls is not given here.

Sequence of Microphthalmia-associated transcription factor (Homo sapiens) (O75030 whole entry, looked up): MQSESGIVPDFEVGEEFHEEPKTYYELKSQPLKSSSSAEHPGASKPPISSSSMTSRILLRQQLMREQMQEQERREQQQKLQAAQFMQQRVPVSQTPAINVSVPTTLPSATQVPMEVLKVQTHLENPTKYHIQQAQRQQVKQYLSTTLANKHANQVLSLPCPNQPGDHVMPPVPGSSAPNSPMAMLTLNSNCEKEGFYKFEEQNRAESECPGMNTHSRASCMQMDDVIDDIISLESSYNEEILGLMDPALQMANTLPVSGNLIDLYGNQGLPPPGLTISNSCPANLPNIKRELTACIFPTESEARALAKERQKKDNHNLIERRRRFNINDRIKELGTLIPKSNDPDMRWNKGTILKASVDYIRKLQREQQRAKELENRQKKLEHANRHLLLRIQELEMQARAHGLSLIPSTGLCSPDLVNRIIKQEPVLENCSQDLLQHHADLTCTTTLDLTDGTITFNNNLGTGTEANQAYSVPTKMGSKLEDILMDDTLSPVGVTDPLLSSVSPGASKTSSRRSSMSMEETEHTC

Broadly, the IC50 is the midpoint of a concentration-inhibition curve. Turning to `Cc1cc2ncn(Cc3noc(-c4ccco4)n3)c2cc1C`, the IC50 was > 6.48 µM (inactive).
Consider `NC(=O)NC(=O)COC(=O)c1c2c(nc3ccccc13)/C(=C\c1ccco1)CCC2`, for which the IC50 was > 7.04 µM (inactive).
